Where two headings read alike, the source gives them in different places.
Assays:
[1] = tested on: NFF, neonatal foreskin fibroblasts; assay: Cell survival assay (clonogenic survival, SRB), normal cells; assay type: cell-based, human; settings: SRB
Description: (§1) The cytotoxicities of the compounds of the invention were determined by clonogenic survival of human cancer cells (MM96L, melanoma) and human normal cells (NFF, neonatal foreskin fibroblasts). Cells were incubated with the compounds at various concentrations of compound (0.01-10 μg/mL) for 24 hours, washed, and then grown for a further four days in the absence of hydroxamic acid before determining cell survival by cell count. The final readout involved staining with sulforhodamine B (SRB), a cost-effective method amenable to automation and high throughput analysis. At the technical level, “cell sensitivity” is often inferred from short term (1-2 day) observations such as apoptosis, which may not be a satisfactory model of clonogenic survival.
(§2) Cell Lines and Culture Medium. All cell lines used in this study have been described previously (Parsons et al., 1986; Todaro et al., 1980; Glenn et al., 2004). All cell lines were cultured in 10% heat-inactivated foetal calf serum (CSL, Australia) in RPMI 1640 medium supplemented with 100 U/mL penicillin, 100 μg/mL streptomycin, and 3 mM HEPES at 5% CO2, 99% humidity at 37° C. Primary human fibroblasts were obtained from neonatal foreskins and cultured in the above medium. Routine mycoplasma tests were performed using Hoechst stain^i and were always negative.
(§3) Cell Survival Assay. Cells were plated into 96-well microtitre plates at 5×10^3 cells/well, and allowed to adhere overnight. Test compounds were added to culture medium at the indicated concentrations, and plates incubated in the above conditions for 24 hours. Following this incubation period, compounds and media were removed, and replaced with fresh culture medium. Cells were then grown for a further 72 hours before assay using sulforhodamine B (SRB; Sigma, St. Louis, Mo.) as previously described. Briefly, the culture medium was removed from the 96-well microtitre plates and the plates washed twice with phosphate buffered saline (PBS), before the cells were fixed with methylated spirits for 15 minutes. The plates were then rinsed with tap water and the fixed cells stained with 50 μL/well of SRB solution (0.4% sulforhodamine B (w/v) in 1% (v/v) acetic acid) over a period of 1 hour. The SRB solution was then removed from the wells and the plates rapidly washed two times with 1% (v/v) acetic acid. Protein bound dye was then solubilised with the addition of 100 μL of 10 mM unbuffered Tris, and incubated for 15 min at 25° C. Plates were then read at 564 nm on a VERSA max tunable microplate reader (Molecular Devices, Sunnyvale, Calif.).

MM96L melanoma cells = assay: Cell survival assay (clonogenic survival, SRB); assay type: cell-based, human; settings: for SI (Selectivity Index = IC50 (NFF)/IC50 (MM96L)): NFF vs MM96L
Description: as §1, §2, §3

[2] = Table 5, 24 hours with compound, further growth, read-out: IC50 NFF
[3] = Table 5, 24 hours with compound, further growth, SRB, read-out: IC50 MM96L
[4] = Table 5, Selectivity Index = IC50 (NFF)/IC50 (MM96L)
[5] = Homo sapiens, Fibroblast, NFF normal fibroblasts, 24 h with compound, further 72 h growth, read-out: IC50 (uM) NFF
[6] = Homo sapiens, MM96L, MM96L melanoma, 24 h with compound, further 72 h growth, SRB, read-out: IC50 (uM) MM96L
[7] = Homo sapiens, Fibroblast, 24 h, Table 6, 24 hours with compound, further growth, read-out: IC50 (μM) NFF
[8] = Homo sapiens, MM96L, 24 h, Table 6, 24 hours with compound, further growth, SRB, read-out: IC50 (μM) MM96L
[9] = Table 6, IC50 (NFF)/IC50 (MM96L)
[10] = NFF normal fibroblasts, 24 h with compound, further 72 h growth, read-out: IC50 (uM) NFF
[11] = MM96L melanoma, 24 h with compound, further 72 h growth, SRB, read-out: IC50 (uM) MM96L
[12] = Homo sapiens, Fibroblast, 24 h, Table 7, 24 hours with compound, further growth, read-out: IC50 (μM) NFF
[13] = Homo sapiens, MM96L, 24 h, Table 7, 24 hours with compound, further growth, SRB, read-out: IC50 (μM) MM96L
[14] = Table 7, IC50 (NFF)/IC50 (MM96L)

## O=C(CCCSC[C@H](NC(=O)C1CCC(=O)N1)C(=O)NCc1ccccc1)NO (stereo partly shown) [Example 56]
[1]; [2]
  IC50: 9.6 ± 0.9 µM
MM96L melanoma cells; [3]
  IC50: 4.4 ± 0.3 µM
MM96L melanoma cells; [4]
  Selectivity: 2.2

## COc1cc(OC)cc(C(=O)N[C@@H](CSCCCC(=O)NO)C(=O)NCc2ccccc2)c1 [Example 30]
[1]; [2]
  IC50: 4.5 ± 0.6 µM
MM96L melanoma cells; [3]
  IC50: 1.7 ± 0.3 µM
MM96L melanoma cells; [4]
  Selectivity: 2.6

## O=C(CCCCC[C@H](NC(=O)c1ccc(C(F)(F)F)cc1)C(=O)NCc1ccccc1)NO [Example 155]
[1]; [5]
  IC50: 1.61 µM
MM96L melanoma cells; [6]
  IC50: 0.665 µM
MM96L melanoma cells
  SI (Selectivity Index = IC50 (NFF)/IC50 (MM96L)): 2.4

## COc1ccc(CCC(=O)N[C@@H](CSCCCC(=O)NO)C(=O)NCc2ccccc2)cc1 [Example 47]
[1]; [2]
  IC50: 16 ± 1 µM
MM96L melanoma cells; [3]
  IC50: 8 ± 1 µM
MM96L melanoma cells; [4]
  Selectivity: 2.0

## O=C(CCCCC[C@H](NC(=O)c1cc2c(Br)cccc2[nH]1)C(=O)NCc1ccccc1)NO [Example 165]
[1]; [5]
  IC50: 1.94 µM
MM96L melanoma cells; [6]
  IC50: 0.485 µM
MM96L melanoma cells
  SI (Selectivity Index = IC50 (NFF)/IC50 (MM96L)): 4.0

## O=C(CCCSC[C@H](NC(=O)c1ccc2ccccc2c1)C(=O)NCc1ccccc1)NO [Example 38]
[1]; [2]
  IC50: 1.14 ± 0.05 µM
MM96L melanoma cells; [3]
  IC50: 0.6 ± 0.2 µM
MM96L melanoma cells; [4]
  Selectivity: 1.9

## CN(C)c1ccc(C(=O)N[C@@H](CSCCCC(=O)NO)C(=O)N2CCCCC2)cc1 [Example 91]
[1]; [7]
  IC50: 20 ± 2 µM
MM96L melanoma cells; [8]
  IC50: 4.9 ± 0.3 µM
MM96L melanoma cells; [9]
  Selectivity: 4.2

## O=C(CCCCC[C@H](NC(=O)c1ccc(C(F)(F)F)cc1)C(=O)Nc1cccc2cccnc12)NO [Example 147]
[1]; [5]
  IC50: 0.696 µM
MM96L melanoma cells; [6]
  IC50: 0.258 µM
MM96L melanoma cells
  SI (Selectivity Index = IC50 (NFF)/IC50 (MM96L)): 2.7

## O=C(CCCCC[C@H](NC(=O)c1cc2ccccc2[nH]1)C(=O)NCc1ccccc1)NO [Example 130]
[1]; [10]
  IC50: 1.26 µM
MM96L melanoma cells; Homo sapiens, MM96L, most preferred compounds, exemplary examples, read-out: potency of IC50 against the MM96 melanoma cells
  IC50: ≤ 0.5 µM
MM96L melanoma cells; [11]
  IC50: 0.252 µM
MM96L melanoma cells
  SI (Selectivity Index = IC50 (NFF)/IC50 (MM96L)): 5.0

## O=C(/C=C/c1ccccc1)N[C@@H](CSCCCC(=O)NO)C(=O)NCc1ccccn1 [Example 102]
[1]; [12]
  IC50: 4.2 ± 0.4 µM
MM96L melanoma cells; [13]
  IC50: 0.8 ± 0.3 µM
MM96L melanoma cells; [14]
  Selectivity: 5.3

## O=C(/C=C/c1ccccc1)N[C@@H](CCCCCC(=O)NO)C(=O)NCc1ccccc1 [Example 138]
[1]; [10]
  IC50: 1.15 µM
MM96L melanoma cells; [11]
  IC50: 0.252 µM
MM96L melanoma cells
  SI (Selectivity Index = IC50 (NFF)/IC50 (MM96L)): 4.5

## CN(C)c1ccc(C(=O)N[C@@H](CSCCCC(=O)NO)C(=O)Nc2cccc3cccnc23)cc1 [Example 68]
[1]; [7]
  IC50: 3 ± 0.3 µM
MM96L melanoma cells; [8]
  IC50: 0.61 ± 0.08 µM
MM96L melanoma cells; [9]
  Selectivity: 5.0

## O=C(CCCSC[C@H](NC(=O)c1ccco1)C(=O)NCc1ccccc1)NO [Example 34]
[1]; [2]
  IC50: 22 ± 1 µM
MM96L melanoma cells; [3]
  IC50: 7.2 ± 0.2 µM
MM96L melanoma cells; [4]
  Selectivity: 3.1

## CN(C)c1ccc(C(=O)N[C@@H](CSCCCC(=O)NO)C(=O)Nc2ccccc2Cc2ccccc2)cc1 [Example 64]
[1]; [7]
  IC50: 6.8 ± 0.4 µM
MM96L melanoma cells; [8]
  IC50: 3.5 ± 0.2 µM
MM96L melanoma cells; [9]
  Selectivity: 1.9

## O=C(CCCCC[C@H](NC(=O)c1ccc(Br)cc1)C(=O)NCc1ccccn1)NO [Example 157]
[1]; [5]
  IC50: 2.09 µM
MM96L melanoma cells; [6]
  IC50: 1.15 µM
MM96L melanoma cells
  SI (Selectivity Index = IC50 (NFF)/IC50 (MM96L)): 1.8

## O=C(/C=C/c1ccccc1)N[C@@H](CSCCCC(=O)NO)C(=O)Nc1cccnc1 [Example 98]
[1]; [12]
  IC50: 6.4 ± 0.8 µM
MM96L melanoma cells; [13]
  IC50: 1.2 ± 0.3 µM
MM96L melanoma cells; [14]
  Selectivity: 5.2

## CN(C)c1ccc(C(=O)N[C@@H](CSCCCC(=O)NO)C(=O)NCc2ccc(C(=O)Nc3cccc4cccnc34)cc2)cc1 [Example 115]
[1]; Table 8, 24 hours with compound, further growth, read-out: IC50 (μM) NFF
  IC50: 1.35 µM
MM96L melanoma cells; Table 8, 24 hours with compound, further growth, SRB, read-out: IC50 (μM) MM96
  IC50: 0.56 µM
MM96L melanoma cells; Table 8, IC50 (NFF)/IC50 (MM96L)
  Selectivity: 2.4

## CN(C)c1ccc(C(=O)N[C@@H](CSCCCC(=O)NO)C(=O)Nc2ccccc2-c2ccccc2)cc1 [Example 62]
[1]; [7]
  IC50: 4.4 ± 0.6 µM
MM96L melanoma cells; [8]
  IC50: 2.1 ± 0.2 µM
MM96L melanoma cells; [9]
  Selectivity: 2.1

— patent US20080004290A1, “Anti-Cancer Agents” (THE UNIVERSITY OF QUEENSLAND, priority 2003, published 2008)
